Each structure is given as a SMILES string. Several values for one entry are separate records, joined by “and”; a condition that tells them apart may be missing. Equal values may be shown once. Activity calls are given as the source filed them.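 How the source made its calls: active means compounds giving half or more protection of infected cells from virus-caused growth loss, again on retest; inactive means the rest.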

The assay relates to CEM cells HIV-1 protection, formazan growth assay. Briefly: NCI AIDS Antiviral Assay. Particulars: for IC50: measured here: growth of uninfected CEM cells. The method, boiled down:
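Human CEM cells, uninfected and HIV-1-infected, exposed to five drug concentrations; growth measured by soluble formazan assay and scored as percent protection from infection, with protecting compounds retested.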

As to `O=C1CCCCC(=O)OC2(CCCCC2=O)CC1` (stereo not given), the EC50 (usually the concentration needed to bring the measured effect to its halfway point) is above 200 µM and the IC50 – broadly, the point on the concentration scale where inhibition reaches its midpoint – was above 200 µM.
Consider `CN1C/C(=C\c2ccc(N(C)C)cc2)C(=O)/C(=C/c2ccc(N(C)C)cc2)C1`, for which the EC50 was above 100 µM and the 50% inhibitory concentration (IC50) was above 100 µM.
As to `C[CH2][Sn]([CH2]C)([O]C(=O)c1ccccc1F)[O][Sn]([CH2]C)([CH2]C)[O]C(=O)c1ccccc1F`, the EC50 was above 39.8 µM and the 50% inhibitory concentration (IC50) came to 25.1 µM.
Turning to `COc1ccc(/C=C/C(=O)c2cc(OC)cc(OC)c2)cc1`, the EC50 is above 200 µM and the IC50 turned out to be 0.955 µM.
Regarding `CCC(C)(CC(=O)O)CC(=O)OC[C@]12CC[C@@H](C(C)C)[C@@H]1[C@H]1CC[C@@H]3[C@@]4(C)CC[C@H](OC(=O)CC(C)(CC)CC(=O)O)C(C)(C)[C@@H]4CC[C@@]3(C)[C@]1(C)CC2` (stereo not given in full), the EC50 is above 200 µM and the IC50 worked out at 7.08 µM.
For the compound `CCOC(CN=c1nc(N(C)C)ss1)OCC`, the outcome was inactive.
Take `CNC(=O)OCc1c(COC(=O)NC)c2n(c1C)-c1ccc(OC)cc1CCC2`: the EC50 was above 123 µM and the half-inhibitory concentration (IC50) turned out to be 2.14 µM.
For the compound `Cc1cc2oc3ccccc3c(=O)c2c(C)c1Cl`, the EC50 was above 28.2 µM and the IC50 is above 28.2 µM.
Turning to `CC(C)(C)[Si](C)(C)OCC1OC(n2ccc(=O)[nH]c2=O)C(O[Si](C)(C)C(C)(C)C)[C@@]12N[C@H](C(N)=O)CS2=O` (stereo not given in full), the EC50 is above 200 µM and the concentration for half-maximal inhibition (IC50) stood at 12.3 µM.
The corresponding values for `Cc1cc2oc(-c3ccccc3)c(C)c(=O)c2c2c1OC(C)(C)S2` are above 39.8 µM and above 39.8 µM.
As for `CC1Cc2c(Br)nc(N)nc2NC1=O` (stereo not given), the EC50 was above 200 µM and the IC50 is above 200 µM.
Consider `CC[C@]1(Cc2ccc(OC)c(OC)c2)C2CC(C(=O)OC)ON2O[C@H](OCc2ccccc2)[C@@H]1OC(C)=O` (stereo not given in full), for which the EC50 was above 200 µM and the IC50 came out at 102 µM.
As to `O=C1NN=C(c2ccccc2)SC1c1ccccc1` (stereo not given), the EC50 is above 200 µM and the half-maximal inhibitory concentration (IC50) was above 200 µM.
In the case of `O=c1[nH]nc(-c2ccccc2)n1Nc1ccccc1`, the EC50 is above 200 µM and the 50% inhibitory concentration (IC50) is above 200 µM.
For `OCn1nc(Cl)c2cc(Cl)ccc21`, the EC50 is above 200 µM and the 50% inhibitory concentration (IC50) is 56.2 µM.
On to `CC(C)OP(=O)(OC(C)C)/C(=N/N)NNc1ccc([N+](=O)[O-])cc1`, for which the EC50 was above 138 µM and the IC50 was found to be 83.2 µM.
With `N#C/C(=C/NC(=S)Nc1ccccc1)C(N)=O`, the EC50 is above 200 µM and the 50% inhibitory concentration (IC50) was above 200 µM.
Take `O=C(NCCCN1CCCCCC1)C(c1ccccc1)C1CCCCC1` (stereo not given): the EC50 was above 200 µM and the IC50 was found to be 36.3 µM.
As to `O=C(O)CP(=S)(S)c1ccccc1` (stereo not given), the EC50 was above 5620 µM and the IC50 is above 5620 µM.
For the compound `N#Cc1c[nH]n2ccnc12`, the EC50 was above 200 µM and the IC50 was above 200 µM.
On to `O=C(NCCc1ccccc1)c1cc2ccc(O)c(O)c2cn1`, for which the EC50 is above 145 µM; the IC50 was 4.37 µM and 2.04 µM.
As to `Brc1ccccc1C=NC12CC3CC(CC(C3)C1)C2`, the EC50 is above 22.9 µM and the IC50 was above 22.9 µM.
For `CCOC(=O)/C(O)=C(/C(=O)OC)c1ccc(Cl)cc1`, the EC50 was above 427 µM and the IC50 is above 427 µM.
`CCN(CC)c1nnc(CCCCCCCCc2nnc(N(CC)CC)o2)o1`: the EC50 was above 200 µM and the IC50 was above 200 µM.
On to `CC1(C)C2=CCCC(=O)[C@@]2(C)CC[C@@H]1O`, for which the outcome was inactive.
For the compound `Cc1cc(C)c2c(c1)CC2(Cl)Cl`, the EC50 was above 178 µM and the IC50 is above 178 µM.
`CC1=Nc2nc(=N)nc3cccc(n23)N1`: the EC50 is above 200 µM and the IC50 stood at 170 µM.
In the same order, the values of `C/C(C=C(C#N)C#N)=C\c1ccc(C)cc1` are above 1200 µM and above 1200 µM.
As to `CSc1cc(-c2ccccn2)nc(-c2ccccn2)c1.CSc1cc(-c2ccccn2)nc(-c2ccccn2)c1.[Ni+2].[O-][Cl+3]([O-])([O-])[O-]`, the EC50 is above 200 µM and the half-maximal inhibitory concentration (IC50) is above 200 µM.
For the compound `Cc1ccc(O)c(C(c2ccc([N+](=O)[O-])cc2)c2cc(C)ccc2O)c1`, the result was inactive.
Regarding `O=C(CCCCCCCCCCc1ccccc1)C1=C(O)C(O)CCC1=O` (stereo not given), the outcome was inactive.
As to `Cc1nc(C(=Nc2ccc(Br)cc2)Nn2cnnc2)no1`, the EC50 was above 200 µM.
As to `COc1ccc(/C=C/C(=O)C(C)(C)CN2CCCCC2)cc1`, the EC50 is above 933 µM and the IC50 came out at 10.5 µM.
For `Cc1nc2c(sc(=S)n2-c2ccccc2)c(=O)[nH]1`, the EC50 was above 91.2 µM and the IC50 was above 91.2 µM.
Take `COc1cc(C(=O)O)c2c(c1C)OC(=O)c1c(C)cc(O)c(C=O)c1O2`: the EC50 is above 83.2 µM and the IC50 amounted to 36.3 µM.
For the compound `c1ccc(-c2nc3ccccc3nc2SCc2cccnc2)cc1`, the EC50 is above 7.94 µM and the half-inhibitory concentration (IC50) was above 7.94 µM.
On to `CCn1c(=O)c(N=O)c(N)n(CCCO)c1=O`, for which the EC50 is above 200 µM and the concentration for half-maximal inhibition (IC50) is above 200 µM.
Take `O=[N+]([O-])c1ccc(C2=Nc3ccccc3S(=O)C(c3ccccc3)C2)cc1` (stereo not given): the EC50 was above 7.24 µM and the concentration for half-maximal inhibition (IC50) was above 7.24 µM.
Turning to `O=C(c1ccc(Cl)cc1)C1N=NCC1c1ccccc1` (stereo not given), the EC50 was above 200 µM and the IC50 turned out to be 75.9 µM.
The corresponding values for `N#Cc1cccc(C=NC23CC4CC(CC(C4)C2)C3)c1` are above 97.7 µM and 74.1 µM.
`CCCCCCCCCCOC(=O)c1cc[n+](C)cc1`: the outcome was inactive.
For the compound `Cn1cnc(N)c(N=O)c1=O`, the EC50 was above 200 µM and the half-inhibitory concentration (IC50) was above 200 µM.
Regarding `COC(=O)C1Cc2ccc(O)c(O)c2CN1` (stereo not given), the EC50 was above 33.9 µM and the concentration for half-maximal inhibition (IC50) was 8.91 µM.
Regarding `O=C(NC1C(=O)NNC1c1cccc([N+](=O)[O-])c1)c1ccccc1` (stereo not given), the EC50 was above 288 µM and the IC50 was above 288 µM.
Take `O=C1C=CC(=C(c2ccc(O)cc2)c2c(Br)c(Br)c(Br)c(Br)c2S(=O)(=O)O)C=C1`: the outcome was inactive.
As to `CC(Oc1ccc(OCC2CCCCC2)cc1)C(=O)O` (stereo not given), the EC50 is above 468 µM and the IC50 stood at 457 µM.
As to `C#CCCCOc1ncccn1`, the EC50 is above 200 µM and the IC50 is above 200 µM.
For `C=C(C)CS(=O)(=O)O`, the EC50 was above 200 µM and the 50% inhibitory concentration (IC50) is above 200 µM.
With `O=[N+]([O-])c1ccc(Cl)cc1C1SCc2nc3ccccc3n21` (stereo not given), the result was inactive.
With `COc1ccc2c(c1)CC[C@@H]1[C@@H]2CC[C@]2(C)/C(=N/OCCN3CCCC3)CC[C@@H]12`, the EC50 is above 200 µM and the IC50 is 1.12 µM.
As to `COc1ccc(C2S/C(=C\c3ccccc3)C(=O)N2NC(=O)Cc2ccccc2)cc1` (stereo not given), the EC50 was above 23.4 µM and the half-inhibitory concentration (IC50) was found to be 19.1 µM.
As for `O=C(c1nc2ccc(Cl)cc2[nH]c1=O)C(O)c1ccco1` (stereo not given), the EC50 is above 8.13 µM and the IC50 was found to be 2.57 µM.
For `COc1ccc(C2ON(c3ccccn3)CC=C2C)cc1` (stereo not given), the EC50 was above 91.2 µM and the IC50 worked out at 83.2 µM.
Turning to `COc1ccc(-c2[nH]c(=O)n(C3OC(CO)C(O)C(O)C3O)c(=O)c2C#N)cc1` (stereo not given), the EC50 was > 200 µM and 186 µM; the IC50 was above 200 µM.
As for `O=C(NC1C=Nc2ccccc2NC1=O)c1ccccc1Cl` (stereo not given), the EC50 was above 115 µM and the half-inhibitory concentration (IC50) stood at 97.7 µM.
Turning to `C=C(C)C12CC(C)C34OC(CCCCCCCCCCC)(OC1C3C1OC1(CO)C(O)C1(O)C(=O)C(C)=CC14C)O2` (stereo not given), the result was active.
On to `CC1(c2nc3ccccc3[nH]2)CCC(C(=O)O)C(C)(C)O1` (stereo not given), for which the EC50 was above 200 µM and the IC50 came to 151 µM.
Turning to `C[C@]12CC[C@@H]3c4ccc(OS(=O)(=O)O)cc4CC[C@H]3[C@@H]1CCC2=O`, the outcome was inactive.
For the compound `Nc1ccc(SSc2ccc(N)cc2)cc1`, the EC50 is above 200 µM; the IC50 is 25.1 µM and 29.5 µM.
In the case of `[N-]=[N+]=NC(=O)c1ccc(S(=O)(=O)c2ccc(F)cc2)cc1`, the result was inactive.
Turning to `Cc1cc(=N)cc(C)n1O`, the EC50 is above 1820 µM and the IC50 was above 1820 µM.
Regarding `CC(C)c1c2[nH]c3ccccc3c2c(C(C)C)c2[nH]c3ccccc3c12`, the EC50 is above 20 µM and the IC50 was above 20 µM.
Consider `CCC(/C=C/C1OC(=O)C=CC1C)=C\C(C)C/C=C/C(C)=C/C(C)C(=O)C(C)C(O)C(C)C/C(C)=C/C(=O)O` (stereo not given), for which the outcome was inactive.
Turning to `O=C(CN1CCOCC1)c1ccc2c(c1)oc(=O)n2CCN1CCOCC1`, the EC50 was above 200 µM and the half-inhibitory concentration (IC50) was above 200 µM.
With `OCC(O)CSSCC(O)C(O)CSSCC(O)CO` (stereo not given), the outcome was inactive.
As to `CN1CCC(OC(=O)Oc2ccccc2)(c2ccccc2)CC1`, the EC50 is above 200 µM and the IC50 came to 30.9 µM.
With `C=CCOP1(OCC=C)=NP(OCC=C)(OCC=C)=NP(OCC=C)(OCC=C)=N1`, the EC50 was above 200 µM and the IC50 came out at 8.51 µM.
Regarding `COC(=O)C(=O)C(C(=O)C(=O)Nc1cccc(OC)c1)c1nc2ccc(Cl)cc2[nH]c1=O` (stereo not given), the EC50 is above 204 µM and the IC50 worked out at 191 µM.
The corresponding values for `Cc1ccc(NC(=O)/C(=N/NC(=O)C[N+](C)(C)C)c2nc3ccccc3[nH]c2=O)cc1` are above 186 µM and 120 µM.
The corresponding values for `Cc1cc(N(CCC#N)CCC#N)ccc1C=Nc1ccc(C(=O)NN2C(=O)/C(=C/c3ccc(N(CCC#N)CCC#N)cc3)N=C2c2cc([N+](=O)[O-])ccc2Cl)cc1` are above 44.7 µM and above 44.7 µM.
In the case of `c1ccc2[nH]c(C3CCCCO3)nc2c1` (stereo not given), the EC50 was above 200 µM and the IC50 is above 200 µM.
Turning to `CC1=NN(c2ccccc2)C(=O)C1=C1SCCS1`, the EC50 was above 182 µM and the 50% inhibitory concentration (IC50) was above 182 µM.
Consider `CC(=O)N1c2ccccc2Sc2c1ccc1ccccc21`, for which the EC50 was above 200 µM and the IC50 came out at 45.7 µM.
The corresponding values for `CCCCc1cc(=O)oc2c3c(c4c(c12)OC(C)(C)CC4)O[C@@H](C)[C@H](C)[C@@H]3O` are 2.69 µM and 10.5 µM.

(Values after PubChem BioAssay AID179 (DTP/NCI, 2004).)
